Data published in ChEMBL document CHEMBL2331209, “Mechanistic studies of the inactivation of tyrosinase by resorcinol” (Bioorg Med Chem, 2013).

How the values were obtained:
[1] = molecular target: T1, Tyrosinase (Homo sapiens) (UniProt P14679); test: Inactivation of tyrosinase (unknown origin) assessed as initial rate of oxygen utilization at absorbance 400 nm using 4-methylcatechol substrate at 850 uM equimolar concentrations resorcinol by spectrophotometry
T1 sequence (whole entry): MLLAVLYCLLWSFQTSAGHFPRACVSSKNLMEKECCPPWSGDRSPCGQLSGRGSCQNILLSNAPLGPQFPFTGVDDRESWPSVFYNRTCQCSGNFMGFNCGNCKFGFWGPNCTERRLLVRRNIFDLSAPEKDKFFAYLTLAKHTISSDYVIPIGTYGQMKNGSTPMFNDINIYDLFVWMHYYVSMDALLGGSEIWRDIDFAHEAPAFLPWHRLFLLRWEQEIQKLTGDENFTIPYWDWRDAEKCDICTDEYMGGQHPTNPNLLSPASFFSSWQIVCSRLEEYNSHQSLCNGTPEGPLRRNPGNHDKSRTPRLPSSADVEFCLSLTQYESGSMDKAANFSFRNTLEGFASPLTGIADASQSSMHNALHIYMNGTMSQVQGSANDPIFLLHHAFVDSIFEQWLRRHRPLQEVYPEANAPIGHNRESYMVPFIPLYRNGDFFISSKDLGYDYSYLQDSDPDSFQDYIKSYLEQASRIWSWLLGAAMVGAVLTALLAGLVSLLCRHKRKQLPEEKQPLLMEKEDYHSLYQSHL

[2] = molecular target: T1, Tyrosinase (Homo sapiens); test: Inactivation of tyrosinase (unknown origin) assessed as initial rate of oxygen utilization using 4-methylcatechol substrate at 850 uM equimolar concentrations resorcinol by spectrophotometry
[3] = molecular target: T1, Tyrosinase (Homo sapiens); test: Inactivation of tyrosinase (unknown origin) assessed as total oxygen uptake using 4-methylcatechol substrate at 850 uM equimolar concentrations resorcinol by spectrophotometry
[4] = molecular target: T1, Tyrosinase (Homo sapiens); test: Inactivation of tyrosinase (unknown origin) assessed as decay half-life using 4-methylcatechol substrate at 850 uM equimolar concentrations resorcinol by spectrophotometry
[5] = molecular target: T1, Tyrosinase (Homo sapiens); test: Inactivation of tyrosinase (unknown origin) assessed as initial rate of oxygen utilization using 4-methylcatechol substrate at 850 uM by spectrophotometry
[6] = molecular target: T1, Tyrosinase (Homo sapiens); test: Inactivation of tyrosinase (unknown origin) assessed as initial rate of oxygen utilization at absorbance 400 nm using 4-methylcatechol substrate at 850 uM by spectrophotometry
[7] = molecular target: T1, Tyrosinase (Homo sapiens); test: Inactivation of tyrosinase (unknown origin) assessed as decay half-life using 4-methylcatechol substrate at 850 uM by spectrophotometry
[8] = molecular target: T1, Tyrosinase (Homo sapiens); test: Inactivation of tyrosinase (unknown origin) assessed as total oxygen uptake using 4-methylcatechol substrate at 850 uM by spectrophotometry

Activity [1] [%]	Activity [2] [%]	Activity [3] [%]	Decay half-life [4] [%]	Activity [5] [%]	Activity [6] [%]	Activity [7] [%]	Activity [8] [%]	SMILES
103	97	117	82					Cc1cc(O)c(C)c(O)c1
40	33	35	68					Oc1cccc(O)c1F
86	91	75	97					Oc1c(F)c(O)c(F)c(F)c1F
10	6	0						Oc1ccc(F)c(O)c1
22	29	33	160					Oc1cc(O)c(Cl)cc1Cl
46	63	28	31					Cc1cc(O)cc(O)c1
< 1	1	0						CCc1ccc(O)cc1O
				32	26	75	37	Oc1cccc(O)c1
103	105	90	82					Cc1c(O)cccc1O
30	30	29	83					Oc1cc(O)c(F)cc1F
133	95	75	81					Oc1cc(O)cc(O)c1
57	46	69	193					Cc1cc(C)c(O)cc1O
79	60	69	72					Oc1cccc(O)c1Cl
46	67	52	122					Oc1cc(O)cc(F)c1
62	64	26	22					COc1cc(O)cc(O)c1
28	18	30	48					Oc1ccc(F)c(O)c1F
51	41	31	74					Oc1cc(F)cc(O)c1F
100	100	100						Oc1cccc(O)c1O

SMILES	Activity [1] [%]	Activity [2] [%]	Activity [3] [%]	Decay half-life [4] [%]	Activity [5] [%]	Activity [6] [%]	Activity [7] [%]	Activity [8] [%]
Oc1c(Cl)cc(Cl)c(O)c1Cl	105	110	86	73				
